How the values were obtained:
Assay type in all cases: cell-based
human salivary sediment [1] = test: pH response of salivary sediment incubated with individual amino acids, with or without 28 mM urea; settings: 37° C.
Method: (§1) To obtain human salivary sediment for performance of the experiments described herein, paraffin wax (4.02 g) was chewed by human subjects (including some subjects 70+ years of age, where oral alkalinity is commonly more prevalent) to stimulate the flow of saliva. Prior to the experiment, the subjects fasted for 12 hours and abstained from oral hygiene for at least 24 hours (to enable spontaneous dental plaque bacterial growth and buildup on their teeth and other oral surfaces (Kleinberg. I., 1967, Arch. Oral Biol., 1457-1473)). As a result of this process, oral bacteria were dislodged by the inert paraffin wax from the teeth and oral soft tissue surfaces in the mouths of the human subjects. About 40 ml of whole saliva was then collected from each subject by expectoration into a 50 ml polypropylene centrifuge tube chilled by surrounding it with cracked ice (Korayem, M. R., Traudt, M., and Kleinberg, I., 1990; Sandham, H. J. and Kleinberg, I., 1973).
(§2) The saliva collected was centrifuged at 1740 g in an International Equipment Company clinical centrifuge (Needham Heights, Mass.) for 15 min. at 4° C. The supernatant was decanted and discarded. To wash the remaining bacterial sediment, 40 ml of ice-cold distilled water was added and mixed in a vortex mixer. The resulting sediment-water mixture was centrifuged at 1740 g for 15 min. at 4° C. The supernatant was again decanted and discarded. This bacterial sediment washing procedure was repeated twice. To the washed bacterial sediment, 10 ml of deionized water was added and the composition was then mixed briefly and thoroughly in a vortex mixer. The sediment was transferred to a 15 ml polypropylene centrifuge tube. The resulting suspension was centrifuged at 1740 g for 15 min. at 4° C. and the resulting supernatant was aspirated and discarded.
To the packed 1.0 ml of salivary sediment obtained after centrifugation, 1.0 ml of deionized water was added to make a 50% salivary sediment suspension for the preparation of the following standard incubation mixtures: salivary sediment at 16.7% (v/v), with and without added individual amino acids: serine, glycine, alanine, valine, and/or histidine, etc. at either a 90 or 120 mM concentration; and leucine, isoleucine, aspartic acid, glutamine, cysteine, cystine, lysine, arginine, tyrosine, phenylalanine, threonine, proline, methionine, tyrosine, glutamine, and/or asparagine, each at 9 mM. These mixtures were each prepared in the presence or absence of 28 mM urea, which has a relatively high pH.
The initial pH of the incubation mixtures was carefully adjusted to or near 7.0 with either 1.0 M NaOH or 1.0 M HCl. Each bacterial mixture was then incubated overnight in a water bath at 37° C. The pH of each mixture was then determined using a combined pH and reference electrode (Radiometer Analytical SAS, Villeurbanne, France) at pre-determined time intervals.

human salivary sediment [2] = test: pH response of salivary sediment with serine, with or without sodium phytate and 6.7 mM urea
Method: as §1, §2
Separately, incubation mixtures containing salivary sediment at 16.7% (v/v) and 6.7 or 8.3 mM serine in the presence or absence of 6.7 mM urea, 20 or 25 mM serine and/or 3 mM sodium phytate (Sigma-Aldrich, St. Louis, Mo.), both in the presence or absence of 6.7 mM urea were prepared. Mixtures were incubated overnight at 37° C. in a water bath incubator (Kleinberg, I. and Hall, G., 1968; Salako, N. O. and Kleinberg, I., 1989), after adjusting the initial pH to or near 7.0 with 1N NaOH or 1N HCl.
Separately, incubation mixtures containing salivary sediment at 16.7% (v/v), 20 or 25 mM serine, and 6 mM sodium phytate were prepared in the presence or absence of 6.7 mM urea. Mixtures were incubated overnight at 37° C. in a water bath incubator, after adjusting the initial pH to or near 7.0 with 1N NaOH or 1N HCl. […]

human salivary sediment [3] = test: pH response of salivary sediment when initial pH was not adjusted to neutrality
Method: Separately, incubation mixtures containing salivary sediment at 16.7% (v/v), 238 mM serine, and 6 mM sodium phytate, with or without 6.7 mM urea, were prepared and incubated without adjusting the initial pH to or near 7.0, except for salivary sediment mixed with deionized water, which was adjusted to pH 8.10 with 1 M NaOH. Determination of the pH of each of these experimental entities were carried out at pre-determined time intervals (i.e., at 0 min., 15 min., 30 min., 1 h, 2 h, 3 h, 4 h, and 21 h) with a pH meter (Radiometer Copenhagen, type PHM26, Radiometer America, Westlake, Ohio) and a combination pH electrode (Radiometer Analytical, Cedex, France).

[4] = 9 mM amino acid + 28 mM urea, 4 hours
[5] = 9 mM amino acid + 28 mM urea, 21 hours (overnight)
[6] = 9 mM amino acid, without urea, 4 hours
[7] = 9 mM amino acid, without urea, 21 hours (overnight)
[8] = 90 mM amino acid + 28 mM urea, 4 hours
[9] = 120 mM amino acid + 28 mM urea, 4 hours
[10] = 90 mM amino acid + 28 mM urea, 21 hours
[11] = 120 mM amino acid + 28 mM urea, 21 hours

| Structure (SMILES) | pH of salivary sediment (human salivary sediment [1]; [4]) | pH of salivary sediment (human salivary sediment [1]; [5]) | pH of salivary sediment (human salivary sediment [1]; [6]) | pH of salivary sediment (human salivary sediment [1]; [7]) | other results |
| --- | --- | --- | --- | --- | --- |
| NC(=O)C[C@H](N)C(=O)O [asparagine] | 8.90 | 8.70 | 6.55 | 7.35 | – |
| N[C@@H](CCC(=O)O)C(=O)O [glutamic acid] | 8.90 | 8.50 | – | 6.70 | – |
| N[C@@H](CO)C(=O)O [serine] | – | – | – | – | pH of salivary sediment (human salivary sediment [2]; 6.70 mM serine + 6.70 mM urea, 21 hours): 7.60; pH of salivary sediment (human salivary sediment [2]; 6.70 mM serine, without urea, 4 hours): 5.95; pH of salivary sediment (human salivary sediment [2]; 6.70 mM serine, without urea, 21 hours): 6.30; pH of salivary sediment (human salivary sediment [2]; 8.30 mM serine + 6.70 mM urea, 21 hours): 7.50; pH of salivary sediment (human salivary sediment [2]; 8.30 mM serine, without urea, 4 hours): 5.90; pH of salivary sediment (human salivary sediment [2]; 8.30 mM serine, without urea, 21 hours): 6.25; pH of salivary sediment (human salivary sediment [2]; 20 mM serine, absence of urea, 4 hours (FIG. 16, 6 mM sodium phytate series)): 7.15; pH of salivary sediment (human salivary sediment [2]; 20 mM serine, absence of urea, 4 hours, initial pH 6.90 (FIG. 15, 3 mM sodium phytate series)): 6.20; pH of salivary sediment (human salivary sediment [2]; 20 mM serine, absence of urea, 21 hours (FIG. 15, 3 mM sodium phytate series)): 6.65; pH of salivary sediment (human salivary sediment [2]; 20 mM serine, absence of urea, 21 hours (FIG. 16, 6 mM sodium phytate series)): 6.47; pH of salivary sediment (human salivary sediment [2]; 25 mM serine, absence of urea, 4 hours (FIG. 16, 6 mM sodium phytate series)): 6.17; pH of salivary sediment (human salivary sediment [2]; 25 mM serine, absence of urea, 4 hours, initial pH 7.00 (FIG. 15, 3 mM sodium phytate series)): 6.17; pH of salivary sediment (human salivary sediment [2]; 25 mM serine, absence of urea, 21 hours (FIG. 15, 3 mM sodium phytate series)): 6.70; pH of salivary sediment (human salivary sediment [2]; 25 mM serine, absence of urea, 21 hours (FIG. 16, 6 mM sodium phytate series)): 6.45; pH of salivary sediment (human salivary sediment [1]; [8]): 8.22; pH of salivary sediment (human salivary sediment [1]; [9]): 8.30; initial pH of incubation mixture (human salivary sediment [3]; absence of urea, initial pH not adjusted): 8.10; pH of incubation mixture (human salivary sediment [3]; absence of urea, initial pH not adjusted, 21 hours): 6.50; initial pH of incubation mixture (human salivary sediment [3]; with urea, initial pH not adjusted to 7.00): 8.10; pH of incubation mixture (human salivary sediment [3]; with urea, initial pH not adjusted, end of the incubation): 6.85 |
| NCCCC[C@H](N)C(=O)O [lysine] | – | 8.70 | – | remained at neutrality | – |
| N[C@@H](Cc1ccccc1)C(=O)O [phenylalanine] | 8.87 | 8.65 | – | – | – |
| CC(C)[C@H](N)C(=O)O [valine] | – | – | – | – | pH of salivary sediment (human salivary sediment [1]; [8]): 8.90; pH of salivary sediment (human salivary sediment [1]; [10]): 8.85; pH of salivary sediment (human salivary sediment [1]; [9]): 8.80; pH of salivary sediment (human salivary sediment [1]; [11]): 8.70 |
| N[C@@H](CS)C(=O)O [cysteine] | 8.75 | 8.55 | 6.35 | 6.60 | – |
| CC(C)C[C@H](N)C(=O)O [leucine] | 8.85 | 8.60 | 6.15 | 6.40 | – |
| NC(N)=O [urea] | – | – | – | – | pH of salivary sediment (human salivary sediment [1]; 28 mM urea alone, 4 hours): about 9.0; pH of salivary sediment (human salivary sediment [1]; 28 mM urea alone, 21 hours): 8.8 |
| O=C(O)[C@@H]1CCCN1 [proline] | 9.00 | 8.80 | 6.10 | remained about unchanged | – |
| C[C@@H](O)[C@H](N)C(=O)O [threonine] | 8.90 | 8.60 | 6.20 | remained about unchanged | – |
| N=C(N)NCCC[C@H](N)C(=O)O [arginine] | – | 8.80 | – | 7.97 | – |
| C[C@H](N)C(=O)O [alanine] | – | – | – | – | pH of salivary sediment (human salivary sediment [1]; [8]): 8.82; pH of salivary sediment (human salivary sediment [1]; [10]): 8.80; pH of salivary sediment (human salivary sediment [1]; [9]): 8.72; pH of salivary sediment (human salivary sediment [1]; [11]): 8.67 |
| N[C@@H](CSSC[C@H](N)C(=O)O)C(=O)O [cystine] | 8.80 | 8.50 | – | 6.35 | – |
| N[C@@H](Cc1c[nH]cn1)C(=O)O [histidine] | – | – | – | – | pH of salivary sediment (human salivary sediment [1]; [10]): 8.30; pH of salivary sediment (human salivary sediment [1]; [11]): 8.22 |
| CSCC[C@H](N)C(=O)O [methionine] | 9.00 | 8.90 | – | 6.20 | – |
| NCC(=O)O [glycine] | – | – | – | – | pH of salivary sediment (human salivary sediment [1]; [8]): 8.72; pH of salivary sediment (human salivary sediment [1]; [10]): 8.65; pH of salivary sediment (human salivary sediment [1]; [9]): 8.90; pH of salivary sediment (human salivary sediment [1]; [11]): 8.55 |
| N[C@@H](Cc1c[nH]c2ccccc12)C(=O)O [tryptophan] | 9.00 | 8.90 | – | 6.20 | – |
| NC(=O)CC[C@H](N)C(=O)O [glutamine] | 9.00 | 8.80 | 5.95 | 6.25 | – |
| CC[C@H](C)[C@H](N)C(=O)O [isoleucine] | 8.90 | 8.65 | 6.40 | 6.62 | – |
| N[C@@H](CC(=O)O)C(=O)O [aspartic acid] | 8.90 | 8.60 | – | 7.00 | – |
| N[C@@H](Cc1ccc(O)cc1)C(=O)O [tyrosine] | 8.87 | 8.62 | – | – | – |
